Patent publication US10251892B2, “Bicyclic heterocycles as FGFR4 inhibitors” (Incyte Corporation, priority 2015, dated 2019)

Columns and labels:
[1] = molecular target: FGFR3 enzyme (Homo sapiens (Human), UniProt P22607); assay: FGFR Enzymatic Assay (peptide phosphorylation, FRET), FGFR3; format: biochemical; conditions: IC50 ratio showing FGFR3 selectivity; pre-incubated for 4 hours
Method: (§1) The inhibitor potency of the exemplified compounds was measured in an enzyme assay that measures peptide phosphorylation using FRET measurements to detect product formation. Inhibitors were serially diluted in DMSO and a volume of 0.5 μL was transferred to the wells of a 384-well plate.
(§2) GraphPad prism3 was used to analyze the data.

[2] = molecular target: FGFR4 (Homo sapiens (Human), UniProt P22455); assay: FGFR Enzymatic Assay (peptide phosphorylation, FRET), FGFR4; format: biochemical
Method: as §1
The enzymes were purchased from Millipore or Invitrogen.
as §2

[3] = IC50 ratio showing FGFR4 selectivity, pre-incubated for 4 hours
[4] = ratio of IC50 data showing FGFR4 selectivity, pre-incubated for 5 to 10 minutes

Sequence of FGFR4 (P22455 22-802): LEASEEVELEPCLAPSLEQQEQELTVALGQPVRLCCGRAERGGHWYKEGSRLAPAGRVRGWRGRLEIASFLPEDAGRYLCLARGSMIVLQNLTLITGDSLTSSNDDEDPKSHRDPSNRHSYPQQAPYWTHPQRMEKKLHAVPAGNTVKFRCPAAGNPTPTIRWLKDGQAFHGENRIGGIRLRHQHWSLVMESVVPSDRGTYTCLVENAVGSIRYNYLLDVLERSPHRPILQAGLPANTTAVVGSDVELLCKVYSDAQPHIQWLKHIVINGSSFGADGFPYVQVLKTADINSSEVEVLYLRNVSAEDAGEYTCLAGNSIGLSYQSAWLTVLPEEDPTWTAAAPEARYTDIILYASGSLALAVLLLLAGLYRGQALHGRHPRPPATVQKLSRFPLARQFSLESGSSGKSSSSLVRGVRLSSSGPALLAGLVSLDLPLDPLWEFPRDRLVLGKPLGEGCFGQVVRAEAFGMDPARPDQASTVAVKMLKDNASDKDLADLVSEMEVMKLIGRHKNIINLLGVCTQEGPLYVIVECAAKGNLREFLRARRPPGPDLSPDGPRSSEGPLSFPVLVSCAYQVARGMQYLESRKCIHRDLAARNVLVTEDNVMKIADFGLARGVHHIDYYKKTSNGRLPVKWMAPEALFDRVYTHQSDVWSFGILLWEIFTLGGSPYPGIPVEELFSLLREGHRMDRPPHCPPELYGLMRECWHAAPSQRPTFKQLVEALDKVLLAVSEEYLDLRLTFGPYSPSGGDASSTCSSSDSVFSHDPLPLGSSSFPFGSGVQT
Sequence of FGFR3 enzyme (P22607 23-806): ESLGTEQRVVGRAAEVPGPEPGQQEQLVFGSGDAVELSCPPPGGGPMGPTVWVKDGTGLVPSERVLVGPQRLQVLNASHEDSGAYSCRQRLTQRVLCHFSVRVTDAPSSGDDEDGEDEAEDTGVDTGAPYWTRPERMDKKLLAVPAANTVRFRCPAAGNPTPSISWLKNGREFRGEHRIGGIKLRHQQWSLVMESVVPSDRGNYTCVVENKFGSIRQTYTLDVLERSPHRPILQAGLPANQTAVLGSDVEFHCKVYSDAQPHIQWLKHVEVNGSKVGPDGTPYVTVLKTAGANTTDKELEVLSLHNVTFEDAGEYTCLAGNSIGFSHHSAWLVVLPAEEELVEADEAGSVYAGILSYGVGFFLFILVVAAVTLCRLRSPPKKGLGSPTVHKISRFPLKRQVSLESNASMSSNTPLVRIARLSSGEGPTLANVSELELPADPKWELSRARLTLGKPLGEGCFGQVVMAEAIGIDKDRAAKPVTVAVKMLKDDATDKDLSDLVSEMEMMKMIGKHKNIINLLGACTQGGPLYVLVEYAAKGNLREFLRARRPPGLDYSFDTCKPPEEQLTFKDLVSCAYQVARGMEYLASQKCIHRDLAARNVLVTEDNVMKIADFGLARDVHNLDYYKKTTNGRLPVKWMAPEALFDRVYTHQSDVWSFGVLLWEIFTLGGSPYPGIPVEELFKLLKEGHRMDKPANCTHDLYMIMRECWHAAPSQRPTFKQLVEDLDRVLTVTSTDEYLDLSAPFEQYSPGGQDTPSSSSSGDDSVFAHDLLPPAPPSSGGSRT

SMILES	FGFR1/FGFR3 [1]	FGFR1/FGFR4 [2, 3]	FGFR2/FGFR4 [2, 3]	FGFR3/FGFR4 [2, 3]	FGFR1/FGFR4 [2, 4]	FGFR2/FGFR4 [2, 4]	FGFR3/FGFR4 [2, 4]	FGFR4/FGFR3 [1]
COc1cncc(-c2cc3c(cn2)CN(c2c(F)c(OC)cc(OC)c2F)C(=O)C32CC2)c1 [Example 10, 2′-(2,6-difluoro-3,5-dimethoxyphenyl)-6′-(5-methoxypyridin-3-yl)-1′H-spiro[cyclopropane-1,4′-[2,7]naphthyridin]-3′(2′H)-one]	>1	>25	>25	>10	>25	>10	>10	–
COc1cc(OC)c(F)c(N2Cc3cnc(-c4cncc(Cl)c4)cc3C3(CC3)C2=O)c1F [Example 11, 6′-(5-chloropyridin-3-yl)-2′-(2,6-difluoro-3,5-dimethoxyphenyl)-1′H-spiro[cyclopropane-1,4′-[2,7]naphthyridin]-3′(2′H)-one]	>1	>25	>25	>10	>50	>20	>25	–
COc1cc(OC)c(F)c(N2Cc3cnc(-c4cc(N)c(F)cc4C)cc3C3(CC3)C2=O)c1F [Example 2, 6′-(5-amino-4-fluoro-2-methylphenyl)-2′-(2,6-difluoro-3,5-dimethoxyphenyl)-1′H-spiro[cyclopropane-1,4′-[2,7]naphthyridin]-3′(2′H)-one]	–	>10	>10	>10	>10	>10	>10	–
COc1cc(OC)c(F)c(N2Cc3cnc(-c4[nH]ncc4C#N)cc3C3(CC3)C2=O)c1F [Example 171, 5-(2′-(2,6-difluoro-3,5-dimethoxyphenyl)-3′-oxo-2′,3′-dihydro-1′H-spiro[cyclopropane-1,4′-[2,7]naphthyridine]-6′-yl)-1H-pyrazole-4-carbonitrile]	–	>10	>10	>10	–	–	–	–
COc1cc(OC)c(F)c(N2Cc3cnc(-c4cc(N)ccc4C#N)cc3C3(CC3)C2=O)c1F [Example 3, 4-amino-2-(2′-(2,6-difluoro-3,5-dimethoxyphenyl)-3′-oxo-2′,3′-dihydro-1′H-spiro[cyclopropane-1,4′-[2,7]naphthyridine]-6′-yl)benzonitrile]	–	>25	>25	>10	>25	>25	>25	–
COc1cc(OC)c(F)c(N2Cc3cnc(-c4nn(C)cc4C#N)cc3C3(CC3)C2=O)c1F [Example 172, 3-(2′-(2,6-difluoro-3,5-dimethoxyphenyl)-3′-oxo-2′,3′-dihydro-1′H-spiro[cyclopropane-1,4′-[2,7]naphthyridine]-6′-yl)-1-methyl-1H-pyrazole-4-carbonitrile]	–	>50	>25	>10	–	–	–	–
COc1cc(OC)c(F)c(N2Cc3cnc(-c4nn(CC5CCOCC5)cc4C#N)cc3C3(CC3)C2=O)c1F [Example 173, 3-(2′-(2,6-difluoro-3,5-dimethoxyphenyl)-3′-oxo-2′,3′-dihydro-1′H-spiro[cyclopropane-1,4′-[2,7]naphthyridine]-6′-yl)-1-((tetrahydro-2H-pyran-4-yl)methyl)-1H-pyrazole-4-carbonitrile]	–	>100	>100	>50	–	–	–	–
COc1cc(OC)c(F)c(N2Cc3cnc(-c4cn(C)nc4C)cc3N(C3CCCC3)C2=O)c1F [Example 32, 1-cyclopentyl-3-(2,6-difluoro-3,5-dimethoxyphenyl)-7-(1,3-dimethyl-1H-pyrazol-4-yl)-3,4-dihydropyrido[4,3-d]pyrimidin-2(1H)-one]	>1	–	–	–	–	–	–	>5
CCn1cnc(-c2cc3c(cn2)CN(c2c(F)c(OC)cc(OC)c2F)C(=O)C32CC2)c1 [Example 53, 2′-(2,6-difluoro-3,5-dimethoxyphenyl)-6′-(1-ethyl-1H-imidazol-4-yl)-1′H-spiro[cyclopropane-1,4′-[2,7]naphthyridin]-3′(2′H)-one]	>5	–	–	–	–	–	–	>5
COc1cc(OC)c(F)c(N2Cc3cnc(-c4cn(C)nc4C)cc3N(c3ccc(-c4nnc(C)o4)cc3)C2=O)c1F [Example 115, 3-(2,6-difluoro-3,5-dimethoxyphenyl)-7-(1,3-dimethyl-1H-pyrazol-4-yl)-1-(4-(5-methyl-1,3,4-oxadiazol-2-yl)phenyl)-3,4-dihydropyrido[4,3-d]pyrimidin-2(1H)-one]	>3	–	–	–	–	–	–	>5
COc1cc(OC)c(F)c(N2Cc3cnc(-c4cnn(CC5CN(S(C)(=O)=O)C5)c4)cc3C3(CC3)C2=O)c1F [Example 166, 2′-(2,6-difluoro-3,5-dimethoxyphenyl)-6′-(1-((1-(methylsulfonyl)azetidin-3-yl)methyl)-1H-pyrazol-4-yl)-1′H-spiro[cyclopropane-1,4′-[2,7]naphthyridin]-3′(2′H)-one]	>3	–	–	–	–	–	–	>3
COc1cc(OC)c(F)c(N2Cc3cnc(-c4cn(C)nc4C)cc3N(Cc3cnn(C4CC4)c3)C2=O)c1F [Example 124, 1-((1-cyclopropyl-1H-pyrazol-4-yl)methyl)-3-(2,6-difluoro-3,5-dimethoxyphenyl)-7-(1,3-dimethyl-1H-pyrazol-4-yl)-3,4-dihydropyrido[4,3-d]pyrimidin-2(1H)-one]	>10	–	–	–	–	–	–	>10
CCN1C(=O)N(c2c(F)c(OC)cc(OC)c2F)Cc2cnc(-c3ccc(CC#N)cc3)cc21 [Example 180, 2-(4-(3-(2,6-difluoro-3,5-dimethoxyphenyl)-1-ethyl-2-oxo-1,2,3,4-tetrahydropyrido[4,3-d]pyrimidin-7-yl)phenyl)acetonitrile]	>5	–	–	–	–	–	–	>5
COc1cc(OC)c(F)c(N2Cc3cnc(-c4cn(C)nc4C)cc3N(c3cnn(C4CC4)c3)C2=O)c1F [Example 130, 1-(1-cyclopropyl-1H-pyrazol-4-yl)-3-(2,6-difluoro-3,5-dimethoxyphenyl)-7-(1,3-dimethyl-1H-pyrazol-4-yl)-3,4-dihydropyrido[4,3-d]pyrimidin-2(1H)-one]	>5	–	–	–	–	–	–	>5
COc1cc(OC)c(F)c(N2Cc3cnc(-c4cn(C)nc4C)cc3N(c3ccn(C)n3)C2=O)c1F [Example 100, 3-(2,6-difluoro-3,5-dimethoxyphenyl)-7-(1,3-dimethyl-1H-pyrazol-4-yl)-1-(1-methyl-1H-pyrazol-3-yl)-3,4-dihydropyrido[4,3-d]pyrimidin-2(1H)-one]	>5	–	–	–	–	–	–	>5
CCNC(=O)c1ccc(-c2cc3c(cn2)CN(c2c(F)c(OC)cc(OC)c2F)C(=O)N3CC)cn1 [Example 175, 5-(3-(2,6-difluoro-3,5-dimethoxyphenyl)-1-ethyl-2-oxo-1,2,3,4-tetrahydropyrido[4,3-d]pyrimidin-7-yl)-N-ethylpicolinamide]	>10	–	–	–	–	–	–	>5

Now from value to molecule:

FGFR1/FGFR3 [1]	FGFR1/FGFR4 [2, 3]	FGFR2/FGFR4 [2, 3]	FGFR3/FGFR4 [2, 3]	FGFR1/FGFR4 [2, 4]	FGFR2/FGFR4 [2, 4]	FGFR3/FGFR4 [2, 4]	FGFR4/FGFR3 [1]	SMILES
–	>100	>10	>25	–	–	–	–	COc1cc(OC)c(F)c(N2Cc3cnc(-c4nn(CC#N)cc4C#N)cc3C3(CC3)C2=O)c1F [Example 174, 1-(cyanomethyl)-3-(2′-(2,6-difluoro-3,5-dimethoxyphenyl)-3′-oxo-2′,3′-dihydro-1′H-spiro[cyclopropane-1,4′-[2,7]naphthyridine]-6′-yl)-1H-pyrazole-4-carbonitrile]
–	>25	>25	>25	>25	>25	>50	–	COc1cc(OC)c(F)c(N2Cc3cnc(-c4cc(N)ccc4C)cc3C3(CC3)C2=O)c1F [Example 1, 6′-(5-amino-2-methylphenyl)-2′-(2,6-difluoro-3,5-dimethoxyphenyl)-1′H-spiro[cyclopropane-1,4′-[2,7]naphthyridin]-3′(2′H)-one]
>10	–	–	–	–	–	–	>5	COc1cc(OC)c(F)c(N2Cc3cnc(-c4cn(C)nc4C)cc3N(c3cncnc3)C2=O)c1F [Example 61, 3-(2,6-difluoro-3,5-dimethoxyphenyl)-7-(1,3-dimethyl-1H-pyrazol-4-yl)-1-(pyrimidin-5-yl)-3,4-dihydropyrido[4,3-d]pyrimidin-2(1H)-one]
>3	–	–	–	–	–	–	>5	COc1cc(OC)c(F)c(N2Cc3cnc(-c4cn(C)nc4C)cc3N(c3ccc(C(=O)N(C)C)cc3)C2=O)c1F [Example 113, 4-(3-(2,6-difluoro-3,5-dimethoxyphenyl)-7-(1,3-dimethyl-1H-pyrazol-4-yl)-2-oxo-3,4-dihydropyrido[4,3-d]pyrimidin-1(2H)-yl)-N,N-dimethylbenzamide]
>5	–	–	–	–	–	–	>10	COc1cc(N2C(=O)N(c3c(F)c(OC)cc(OC)c3F)Cc3cnc(-c4cn(C)nc4C)cc32)ccc1C#N [Example 81, 4-(3-(2,6-difluoro-3,5-dimethoxyphenyl)-7-(1,3-dimethyl-1H-pyrazol-4-yl)-2-oxo-3,4-dihydropyrido[4,3-d]pyrimidin-1(2H)-yl)-2-methoxybenzonitrile]
>5	–	–	–	–	–	–	>5	COc1cc(OC)c(F)c(N2Cc3cnc(-c4cn(C)nc4C)cc3N(Cc3cnn(CC#N)c3)C2=O)c1F [Example 125, 2-(4-((3-(2,6-difluoro-3,5-dimethoxyphenyl)-7-(1,3-dimethyl-1H-pyrazol-4-yl)-2-oxo-3,4-dihydropyrido[4,3-d]pyrimidin-1(2H)-yl)methyl)-1H-pyrazol-1-yl)acetonitrile]
>5	–	–	–	–	–	–	>10	COc1cc(OC)c(F)c(N2Cc3cnc(-c4cn(C)nc4C)cc3N(c3ccc(-n4cccn4)cc3)C2=O)c1F [Example 77, 1-(4-(1H-pyrazol-1-yl)phenyl)-3-(2,6-difluoro-3,5-dimethoxyphenyl)-7-(1,3-dimethyl-1H-pyrazol-4-yl)-3,4-dihydropyrido[4,3-d]pyrimidin-2(1H)-one]
